From US7816338B2, “Compositions and methods for inhibiting car gene expression by RNA interference” (Sumitomo Chemical Company, Limited, priority 2007, dated 2010)

Legend:
[1] = tested on: CYP2B dependent pentoxyresorufin O-depentylation activity; assay: CYP2B dependent PROD (pentoxyresorufin O-depentylation activity) in hepatocytes (Example 6); type: cell-based, rat; settings: PB and control siRNA (Cont) treatment; 72 hours after siRNA
Method: Then, the culture medium is replaced with 2 mL of William's culture medium containing 7 μM of 7-pentoxyresorufin and 7 μM of dicumarol. The culture medium is incubated at 37° C. for 4 hours, and then the culture medium is recovered. The cells are mixed with 1000 U of β-glucronidase (bovine liver-derived) and 50 mM of sodium acetate solution (pH 5), which is left at 37° C. for 3 hours. Measurement of pentoxyresorufin O-depentylation activity is performed by measuring the amount of fluorescence per unit solution. Further, the measurement is carried out at an excitation wavelength of 530 nm and a fluorescence wavelength of 585 nm using a fluorophotometer (F-4010, manufactured by Hitachi). In evaluation of the results, the total amount of protein in the cells in which the substrate was treated is measured by the Protein assay kit (Bio-Rad) and the production amount of resorufin per unit protein (amount of pentoxyresorufin O-depentylation) is calculated on the basis of the calibration curve of resorufin. […] As a result, pentoxyresorufin O-depentylation activity is enhanced by PB and control siRNA (Cont) treatment as compared to the case of the untreated cells.

[2] = tested on: CYP2B1 mRNA; assay: CYP2B1 gene expression in PB-treated primary hepatocyte cultured cells (Example 5 (3))
[3] = tested on: liver; assay: Centrilobular cell hypertrophy, histopathological examination of the liver (Example 11); type: in vivo, rat; settings: rats; group treated with PB and control siRNA (Cont)
Method: (§1) Histopathological examination of the liver in the rats to which siRNA (CAR) or control siRNA (Cont) was administered by the methods described in (1) to (3) of Example 2 is performed by the method described in (5) of Example 2. As a result, centrilobular cell hypertrophy is increased in the group treated with PB and control siRNA (Cont) as compared to the case of the untreated animal group.

[4] = tested on: liver; assay: Liver wet weight in rats (Example 10); type: in vivo, rat; settings: group treated with PB and control siRNA (Cont)
Method: as §1, with “The wet weight” for “Histopathological examination”, “measured” for “performed”, “the liver weight” for “centrilobular cell hypertrophy”

## CCC1(c2ccccc2)C(=O)NC(=O)NC1=O [PB, Phenobarbital]
[1]
  pentoxyresorufin O-depentylation activity as compared to the untreated cells: enhanced
[2]; cells treated with PB (50 nM) and control siRNA(Cont)
  CYP2B1 mRNA expression increase compared to cells untreated with PB: about fivefold
[2]; cells which inhibited CAR (siRNA(CAR)), PB 50 nM
  CYP2B1 expression increase by PB treatment compared to cells untreated with compound: about twofold
[3]
  centrilobular cell hypertrophy as compared to the untreated animal group: increased
[4]
  liver weight as compared to the untreated animal group: increased
